Measured values as given in US11958868B2, “Methods of using metal complexes to promote wound healing” (University of Macau, priority 2022, dated 2024).

How the values were obtained:
[1] = biological target: T1, human recombinant VHL:ElonginB:ElonginC (VBC) complex (Homo sapiens, UniProt P40337); assay: Fluorescence-based protein thermal shift assay (FTS) of VBC; type: binding; details: 100 μM
T1 construct: made in house
Method: (§1) HEK293 cells were treated with vehicle DMSO (1% for 2 h), 1a (0.3, 1, 3, 6 and 9 μM for 2 h), VH298 (100 μM for 2 h), MG132 (20 μM for 3 h), or FG-4592 (100 μM for 2 h) before lysis. Cell lysates were collected and incubated with VHL antibody overnight at 4° C. The proteins were immunoprecipitated using agarose beads. The levels of hydroxy-HIF-1α co-precipitated with VHL were detected using a hydroxy-HIF-1α antibody, and then visualized using ECL Western Blotting Detection Reagent (GE Healthcare). (B) Cellular thermal shift assays to monitor cellular target engagement of VHL and HIF-1α. HEK293 cell lysates were treated with 1a (3 μM) at room temperature for 30 min and then heated at different temperature ranging from 48° C. to 68° C. for 5 min. The protein samples were collected and detected by Western blotting using either VHL or PHD2 antibodies. (C) Fluorescence-based protein thermal shift assay of VBC in the presence or absence of VH298 (100 μM) and complex 1a (100 μM). […] Data are expressed as means±SD (n=3 independent experiments for figures a and b, samples for figures c and e), P values were calculated using a two-sided t-test. *P<0.05, **P<0.01 vs. DMSO group.
(§2) After incubating HEK293 cell lysates with complex 1a followed by heating to set temperatures, VHL and PHD2 levels in the soluble fraction were quantitated by Western blotting.

[2] = biological target: T1, human recombinant VHL:ElonginB:ElonginC (VBC) complex; assay: Isothermal titration calorimetry (ITC); type: binding
Method: as §1, with “μM). (D) ITC titration of complex 1a (300 μM) into recombinant VHL protein (30 μM). ITC experiments were carried in a MicroCal PEAQ-ITC Isothermal Titration Calorimeter (Malvern Panalytical). […] (F) Biolayer interferometry (BLI) kinetic analysis of the interaction between complex 1a and VBC. VBC was surface-immobilized to Ni-NTA biosensors.” for “μM).”
as §2

[3] = system: HIF-1α, VEGF, GLUT1 and EPO levels in HEK293 cells; assay: Western blotting of HIF-1α and HIF-1α target gene products in HEK293 cells; type: cell-based, Human; details: 2 h
Method: (§3) FIG. 3 depicts the effect of complex 1a on HIF-1α target gene products in cellulo. (A) Effect of complex 1a on specific proteins (GLUT1, VEGF, and EPO) mediated by HIF-1α in HEK293 cells. HEK293 cells were treated with 1a for 2 h. Cell lysis were collected and analyzed by the Western blotting. (B) Complex 1a has no effect on HIF-1α accumulation in a VHL null cancer cell line. A498 (VHL-null), or HEK293 cells were treated with 1% DMSO, 1a (3 μM), VH298 (100 μM), and FG-4592 (100 μM) for 2 h before lysis. (C) Effect of complex 1a on EPO, GLUT1, and VEGF levels in HEK293 cells with or without HIF-1α knockdown. Left: The expression levels of EPO, GLUT1, and VEGF in HEK293 cells with or without knockdown HIF-1α in the presence or absence of 1a. Right: Densitometry analysis of EPO, GLUT1, and VEGF levels on the Western blot. HIF-1α siRNA [sense, 5′-[…]-3′ (SEQ ID NO:1), antisense, 5′-[…]-3′ (SEQ ID NO:2)]. Negative control (NC) siRNA [sense, 5′-[…]-3′ (SEQ ID NO:3), antisense, 5′-[…]-3′ (SEQ ID NO:4)]. Data are expressed as means±SD (n=3 independent experiments), P values were calculated using a two-sided t-test. #P<0.05, P<0.01 HIF-1α siRNA vs. NC siRNA, *P<0.05, **P<0.01 1a vs. vehicle/DMSO group, respectively.
Therefore, the effect of complex 1a on HIF-1α and HIF-1α target protein levels in cellulo was investigated. […]

[4] = system: HIF-1α levels in A498 (VHL-null) cells; assay: HIF-1α accumulation in VHL-null A498 cells; type: cell-based; details: 1a 3 μM, VH298 100 μM, 2 h
Method: as §3, with “respectively. […]” for “respectively.”

[5] = system: HIF-2a; assay: Effect on HIF-2a level and activity; type: cell-based
[6] = Stability in solution (1H NMR, UV/Vis); type: physicochemical; details: 298 K
Text: Based on the structure of complex 1, a focused library of 14 cyclometalated Rh(III) and Ir(III) complexes containing different CAN or NAN donor ligands were designed and synthesized (1a-1n) (FIG. 1c). This library was enriched in the brpy CAN and dmeophen N^N ligands that were identified in the first round of screening to be favorable substructures for potency.

[7] = Body weight, blood glucose and toxicity in treated mice; type: in vivo
Text: The mice were maintained for 3 days. […] All experiments complied with all relevant ethical regulations.

[8] = ICP-MS analysis of iridium in skin samples; type: in vivo; details: dosed STZ and HFD/STZ mice
Method: STZ mice were obtained by a single injection of high-dose streptozotocin (150 mg/kg) (Supplementary FIG. 10a). HFD/STZ mice were generated by 8 weeks high-fat diet feeding, followed by low-dose streptozotocin injection for 7 days (40 mg/kg/day) (Supplementary FIG. 11a). 3 days after streptozotocin injection, STZ or HFD/STZ mice with fasting blood glucose levels between 15 and 28 mmol/L were considered as diabetic mice and used in wound healing experiments. STZ and HFD/STZ mice were intraperitoneally injected with either vehicle (PEG 400: distilled water=6:4, v/v) or 1.25 mg/kg complex 1a every other day for 8 days, respectively.

[9] = biological target: T2, VHL (Homo sapiens, UniProt P40337); assay: Binding affinity to VHL compared with VH298; details: complex 1a vs VH298
T2 sequence (P40337 whole entry): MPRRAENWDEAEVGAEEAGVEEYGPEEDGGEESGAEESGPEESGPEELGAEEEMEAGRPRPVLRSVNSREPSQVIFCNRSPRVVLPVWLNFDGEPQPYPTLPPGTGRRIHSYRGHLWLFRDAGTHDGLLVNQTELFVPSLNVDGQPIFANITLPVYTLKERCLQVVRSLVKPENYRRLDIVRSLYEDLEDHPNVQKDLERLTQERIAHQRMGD
T2 sequence (Q15370 whole entry partner): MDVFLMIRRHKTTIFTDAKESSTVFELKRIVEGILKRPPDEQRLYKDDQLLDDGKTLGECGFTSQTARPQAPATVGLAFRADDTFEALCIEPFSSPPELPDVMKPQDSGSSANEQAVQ
T2 sequence (Q15369 whole entry partner): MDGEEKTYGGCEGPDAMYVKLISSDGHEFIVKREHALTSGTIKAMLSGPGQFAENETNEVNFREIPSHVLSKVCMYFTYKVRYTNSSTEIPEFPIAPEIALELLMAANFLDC

[10] = biological target: T2, VHL; assay: Cellular thermal shift assay (CETSA) in HEK293 cell lysates, VHL; type: binding; parameters: monitor the target engagement of 1a in HEK293 cell lysates; endogenous in cells; host or cells: HEK293 cell lysate; details: 3 μM, 30 min
Method: as §1
After incubating HEK293 cell lysates with complex 1a followed by heating to set temperatures, VHL and PHD2 levels in the soluble fraction were quantitated by Western blotting. […]

T1 sequence (P40337 whole entry): as the sequence (P40337 whole entry) above
T1 sequence (Q15370 whole entry partner): as the sequence (Q15370 whole entry partner) above
T1 sequence (Q15369 whole entry partner): as the sequence (Q15369 whole entry partner) above

Compound: COc1cc[n+]2c3c1ccc1c(OC)cc[n+](c13)[Ir-3]213([c]2ccccc2-c2cccc[n+]21)[c]1ccccc1-c1cccc[n+]13.F[P-](F)(F)(F)(F)F [1a]
- Shift of the melting curve of purified VBC (FTS) [1]: ca. 3.0 °C
- ΔG (ITC) [2]: -8.14 kcal/mol
- ΔH (ITC) [2]: -7.85 kcal/mol
- −TΔS (ITC) [2]: -0.29 kcal/mol
- Kd ([2]; 300 μM complex titrated into 30 μM VBC, 25° C.): 1.08 ± 0.2 µM
- Expression levels of HIF-1α, VEGF, GLUT1 and EPO [3]: increased in a dose-dependent manner
- HIF-1α levels in A498 cells [4]: no increase in HIF-1α levels
- Level and activity of HIF-2a [5]: no effect on the level and activity of HIF-2a
- Stability in [d6]DMSO/D2O (9:1) solution ([6]; 1H NMR spectroscopy): remarkable stability in a [d6]DMSO/D2O (9:1) solution for at least seven days
- Stability in acetonitrile/H2O (9:1) solution ([6]; UV/Vis spectroscopy): for at least seven days
- Blood glucose levels or body weight ([7]; HFD/STZ and STZ models, diabetic and NC mice, 1.25 mg/kg i.p.): neither diabetic nor normal control mice (NC) showed obvious changes in blood glucose levels or body weight
- Body weight after local application ([7]; WT and db/db mice, 0.25 mg/mL topical, 8 days): did not affect body weight
- Toxicity in animal models of diabetes ([7]; db/db, HFD/STZ and STZ): without significant toxicity
- Iridium in skin samples (ICP-MS) [8]: confirmed the presence of iridium in skin samples
- Binding affinity, lower than that of VH298 [9]: around 100 fold
- Shift in the VHL melting curve (CETSA) [10]: about 6 °C
